Key:
[1] = test system: SW480; assay: cells; conditions: Homo sapiens, SW480, 72 h
[2] = test system: SW-620; assay: cells; conditions: Homo sapiens, SW-620, 72 h
[3] = test system: DLD-1; assay: cells; conditions: Homo sapiens, DLD-1, 72 h
[4] = test system: DLD-1; assay: cells; conditions: Homo sapiens, DLD-1, 72 h; remark: listed apart in the source
[5] = test system: SW480; assay: cells; conditions: Homo sapiens, SW480, 72 h; remark: listed apart in the source
[6] = test system: SW-620; assay: cells; conditions: Homo sapiens, SW-620, 72 h; remark: listed apart in the source
[7] = test system: HEK-293T; assay: Effect on FOP reporter expression in LiCl-induced HEK293T cells incubated for 24 hrs by luciferase reporter gene assay; assay type: ADME, cell-based; conditions: human
[8] = test system: SW480; assay: cells; conditions: Homo sapiens, SW480, 72 h; remark: listed apart in the source
[9] = test system: DLD-1; assay: cells; conditions: Homo sapiens, DLD-1, 72 h; remark: listed apart in the source

| IC50 [1] | IC50 [2] | IC50 [3] | IC50 [4] | IC50 [5] | IC50 [6] | IC50 [8] | IC50 [9] | Compound | Activity [7] |
| --- | --- | --- | --- | --- | --- | --- | --- | --- | --- |
| 100 nM | 500 nM | 100 nM | 500 nM | 900 nM | 18 µM | – | – | O=C(Nc1ccc(CO)cc1)c1[nH]c2ccc(Cl)cc2c1Cc1ccccc1 | – |
| 300 nM | – | 100 nM | 800 nM | 3000 nM | 22 µM | – | – | O=C(Nc1ccccc1CO)c1c[nH]c2ccc(Cl)cc12 | – |
| – | – | – | – | – | – | – | – | CCOC(=O)c1ccc(NS(=O)(=O)c2ccc(Br)cc2)cc1 | Non-Toxic |
| – | – | – | – | – | – | 10 µM | 28 µM | Cc1cc([N+](=O)[O-])ccc1NS(=O)(=O)c1cc(Cl)ccc1Cl | – |
